Test results reported in US20220313698A1, “MODULATORS OF CYSTIC FIBROSIS TRANSMEMBRANE CONDUCTANCE REGULATOR” (Vertex Pharmaceuticals Incorporated, priority 2019, published 2022).
pEC50: −log10 of the molar value. Where two headings read alike, the source gives them in different places.

What was measured:
[1] = molecular target: T1, CFTR-mediated chloride transport (Homo sapiens, UniProt P13569); assay: Corrector Assay A - membrane potential dye assay (enteroid cells); conditions: for Corrector Assay A % activity: % of chloride transport of triple combination control (1 μM (14S)-dispiro macrocycle + 3 μM tezacaftor + 300 nM ivacaftor); for pEC50: read-out: Corrector Assay A EC50, human intestinal enteroid cells, 18-24 h incubation, acute 10 μM forskolin + 300 nM ivacaftor
[2] = snar bond
[3] = snar bond, 15-membered ring, K2CO3
[4] = molecular target: T1, CFTR-mediated chloride transport; assay: Corrector Assay B - membrane potential dye assay (enteroid cells); conditions: for Corrector Assay B % activity: % of chloride transport of triple combination control (3 μM Compound A + 3 μM tezacaftor + 300 nM ivacaftor); for pEC50: read-out: Corrector Assay B EC50, human intestinal enteroid cells, 18-24 h incubation, acute 10 μM forskolin + 300 nM ivacaftor;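 as to all read-outs here: methyl oxonol membrane potential fluorescence followed over 15 min after switching to chloride-free buffer with forskolin, 100 µM IBMX and ivacaftor, in presence of CaCC blockers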
Protocol: Base medium (ADF+++) consisted of Advanced DMEM/Ham's F12, 2 mM Glutamax, 10 mM HEPES, 1 μg/ml penicillin/streptomycin.
Intestinal enteroid maintenance medium (IEMM) consisted of ADF+++, 1×B27 supplement, 1×N2 supplement, 1.25 mM N-acetyl cysteine, 10 mM Nicotinamide, 50 ng/mL hEGF, 10 nM Gastrin, 1 μg/mL hR-spondin-1, 100 ng/mL hNoggin, TGF-b type 1 inhibitor A-83-01, 100 μg/mL Primocin, 10 μM P38 MAPK inhibitor SB202190.
Bath 1 Buffer consisted of 1 mM MgCl2, 160 mM NaCl, 4.5 mM KCl, 10 mM HEPES, 10 mM Glucose, 2 mM CaCl2).
Chloride Free Buffer consisted of 1 mM Magnesium Gluconate, 2 mM Calcium Gluconate, 4.5 mM Potassium Gluconate, 160 mM Sodium Gluconate, 10 mM HEPES, 10 mM Glucose.
Bath 1 Dye Solution consisted of Bath 1 Buffer, 0.04% Pluronic F127, 20 μM Methyl Oxonol, 30 μM CaCCinh-A01, 30 μM Chicago Sky Blue.
Chloride Free Dye Solution consisted of Chloride Free Buffer, 0.04% Pluronic F127, 20 μM Methyl Oxonol, 30 μM CaCCinh-A01, 30 μM Chicago Sky Blue.
Chloride Free Dye Stimulation Solution consisted of Chloride Free Dye Solution, 10 μM forskolin, 100 μM IBMX, and 300 nM Ivacaftor.
Cells were recovered in cell recovery solution, collected by centrifugation at 650 rpm for 5 min at 4° C., resuspended in TryPLE and incubated for 5 min at 37° C. Cells were then collected by centrifugation at 650 rpm for 5 min at 4° C. and resuspended in IEMM containing 10 μM ROCK inhibitor (RI). The cell suspension was passed through a 40 μm cell strainer and resuspended at 1×10^6 cells/mL in IEMM containing 10 μM RI. Cells were seeded at 5000 cells/well into multi-well plates and incubated for overnight at 37° C., 95% humidity and 5% CO2 prior to assay.
Briefly, cells were washed 5 times in Bath 1 Buffer. Bath 1 Dye Solution was added and the cells were incubated for 25 min at room temperature. Following dye incubation, cells were washed 3 times in Chloride Free Dye Solution. Chloride transport was initiated by addition of Chloride Free Dye Stimulation Solution and the fluorescence signal was read for 15 min. The CFTR-mediated chloride transport for each condition was determined from the AUC of the fluorescence response to acute forskolin and 300 nM N-[2,4-bis(1,1-dimethylethyl)-5-hydroxyphenyl]-1,4-dihydro-4-oxoquinoline-3-carboxamide stimulation. Chloride transport was then expressed as a percentage of the chloride transport following treatment with 3 μM Compound A, 3 μM (R)-1-(2,2-difluorobenzo[d][1,3]dioxol-5-yl)-N-(1-(2,3-dihydroxypropyl)-6-fluoro-2-(1-hydroxy-2-methylpropan-2-yl)-1H-indol-5-yl)cyclopropanecarboxamide and 300 nM acute N-[2,4-bis(1,1-dimethylethyl)-5-hydroxyphenyl]-1,4-dihydro-4-oxoquinoline-3-carboxamide triple combination control (% Activity).

[5] = from CC1(C)C[C@H](CCC(Nc2cccc(S(=O)(=O)NC(=O)c3ccc(C(C)(C)C)nc3F)n2)c2cccc(Br)n2)CN1, 15-membered ring, K2CO3, NMP, 21.9 mM, 165.0 °C, 16.0 h

## CC(C)(C)c1ccc2c(n1)N1C[C@@H](CC[C@H](c3cccc(Br)n3)Nc3cccc(n3)S(=O)(=O)NC2=O)CC1(C)C (single isomer, unassigned) [Compound 215]
[1]
  Corrector Assay A % activity: +++ (+++ is >60%)
  pEC50: > 6.00
[2]; [5]
  ring closure, yield after HPLC: 46%

## CC1(C)CC2CN1c1nc(-n3ccc(OCCC4C5(CC5)C45CC5)n3)ccc1C(=O)NS(=O)(=O)c1cccc(n1)NCCC2CCc1ccccc1 (stereo not drawn)
[3]; from CC1(C)CC(C(CCNc2cccc(S(=O)(=O)NC(=O)c3ccc(-n4ccc(OCCC5C6(CC6)C56CC6)n4)nc3Cl)n2)CCc2ccccc2)CN1, NMP, 64.5 mM, 150.0 °C, 20.0 h, 2 steps
  ring closure, isolated yield: 61%

## CC(C)(C)c1ccnc(C2CC[C@H]3CCN(C3)c3nc(C(C)(C)C)ccc3C(=O)NS(=O)(=O)c3cccc(n3)N2)c1 (stereo partly drawn)
[3]; from CC(C)(C)c1ccnc(C(CC[C@H]2CCNC2)Nc2cccc(S(=O)(=O)NC(=O)c3ccc(C(C)(C)C)nc3F)n2)c1, DMSO, 77.9 mM, 120.0 °C, 2.0 h
  ring closure, isolated yield: 54%

## CC(C)(C)c1ccnc(C2CC[C@@H]3CN(c4nc(C(C)(C)C)c(Br)cc4C(=O)NS(=O)(=O)c4cccc(n4)N2)C(C)(C)C3)c1 (stereo partly drawn)
[3]; from CC(C)(C)OC(=O)N1C[C@@H](CCC(Nc2cccc(S(=O)(=O)NC(=O)c3cc(Br)c(C(C)(C)C)nc3Cl)n2)c2cc(C(C)(C)C)ccn2)CC1(C)C, NMP, 61.5 mM, 160.0 °C, 2 steps
  ring closure, isolated yield: 56%

## CC1(C)C[C@@H]2CC[C@H](c3cccc(C(F)(F)F)n3)Nc3cccc(n3)S(=O)(=O)NC(=O)c3ccc(Br)nc3N1C2 [Compound 56, (14S,17R)-8-Bromo-12,12-dimethyl-17-[6-(trifluoromethyl)pyridin-2-yl]-2λ^6-thia-3,9,11,18,23-pentaazatetracyclo[17.3.1.111,14.05,10]tetracosa-1(22),5,7,9,19(23),20-hexaene-2,2,4-trione]
[1]
  Corrector Assay A % activity: + (+ is <30%)
  pEC50: < 5.52
[2]; from CC1(C)C[C@@H](CCC(Nc2cccc(S(=O)(=O)NC(=O)c3ccc(Br)nc3Cl)n2)c2cccc(C(F)(F)F)n2)CN1, 15-membered ring, K2CO3, DMA, 98.5 mM, 140.0 °C
  ring closure, yield after HPLC: 21%

## CC(C)(C)c1ccc2c(n1)N1C[C@@H](CCCNc3cccc(n3)S(=O)(=O)NC2=O)CC1(C)C [Compound 296, (14S)-8-tert-Butyl-12,12-dimethyl-2λ^6-thia-3,9,11,18,23-pentaazatetracyclo[17.3.1.111,14.05,10]tetracosa-1(23),5(10),6,8,19,21-hexaene-2,2,4-trione]
[1]
  Corrector Assay A % activity: +++ (+++ is >60%)
  pEC50: > 6.00
[4]
  Corrector Assay B % activity: +++ (+++ is >60%)
  pEC50: > 6.00
[2]; from CC1(C)C[C@H](CCCNc2cccc(S(=O)(=O)NC(=O)c3ccc(C(C)(C)C)nc3Cl)n2)CN1, 15-membered ring, K2CO3/3A MS, DMSO, 53.4 mM, 165.0 °C, 60.0 h, 2 steps
  ring closure, yield after HPLC: 43%

## CC1(C)C[C@@H]2CCCN(CC(O)CO)c3cccc(n3)S(=O)(=O)NC(=O)c3ccc(-n4ccc(OCCC5(C(F)(F)F)CC5)n4)nc3N1C2 (stereo partly drawn) [Compound 382, (14S)-18-(2,3-dihydroxypropyl)-12,12-dimethyl-8-(3-{2-[1-(trifluoromethyl)cyclopropyl]ethoxy}-1H-pyrazol-1-yl)-2λ^6-thia-3,9,11,18,23-pentaazatetracyclo [17.3.1.111,14.05,10]tetracosa-1(22),5,7,9,19(23),20-hexaene-2,2,4-trione]
[4]
  Corrector Assay B % activity: +++ (+++ is >60%)
  pEC50: > 6.00
[2]; from CC(C)(C)OC(=O)N1C[C@@H](CCCN(CC2COC(C)(C)O2)c2cccc(S(=O)(=O)NC(=O)c3ccc(-n4ccc(OCCC5(C(F)(F)F)CC5)n4)nc3Cl)n2)CC1(C)C, 15-membered ring, K2CO3/4A MS, DMSO, 38.5 mM, 140.0 °C, 2 steps
  ring closure, yield after HPLC: 59%

## CC(C)(C)c1ccnc([C@H]2CC[C@@H]3CN(c4nc(Br)ccc4C(=O)NS(=O)(=O)c4cccc(n4)N2)C(C)(C)C3)c1 [Compound 55, (14S,17R)-8-bromo-17-(4-tert-butylpyridin-2-yl)-12,12-dimethyl-2λ^6-thia-3,9,11,18,23-pentaazatetracyclo[17.3.1.111,14.05,10]tetracosa-1(22),5,7,9,19(23),20-hexaene-2,2,4-trione]
[1]
  Corrector Assay A % activity: ++ (++ is 30-60%)
  pEC50: > 6.00
[2]; from CC1(C)C[C@@H](CCC(Nc2cccc(S(=O)(=O)NC(=O)c3ccc(Br)nc3Cl)n2)c2cc(C(C)(C)C)ccn2)CN1, 15-membered ring, K2CO3, DMA, 97.8 mM, 140.0 °C, 7.0 h
  ring closure, yield after HPLC: 23%

## CC(C)C1CC[C@@H]2CN(c3nc(-n4ccc(OCCC5C6(CC6)C56CC6)n4)ccc3C(=O)NS(=O)(=O)c3cccc(n3)N1)C(C)(C)C2 (single isomer, unassigned; diastereomer 2)
[2]; from CC(C)C(CC[C@H]1CNC(C)(C)C1)Nc1cccc(S(=O)(=O)NC(=O)c2ccc(-n3ccc(OCCC4C5(CC5)C45CC5)n3)nc2Cl)n1, 15-membered ring, K2CO3, NMP, 23.0 mM, 165.0 °C, 16.0 h
  ring closure, yield after HPLC: 60%

## CC1(C)CC2CN1c1nc(-n3ccc(OCCC4(C(F)(F)F)CC4)n3)ccc1C(=O)NS(=O)(=O)c1cccc(n1)NCCC2c1ccccc1 (stereo not drawn)
[2]; from CC1(C)CC(C(CCNc2cccc(S(=O)(=O)NC(=O)c3ccc(-n4ccc(OCCC5(C(F)(F)F)CC5)n4)nc3Cl)n2)c2ccccc2)CN1, 15-membered ring, K2CO3/3A MS, DMSO, 38.4 mM, 155.0 °C, 16.0 h, 2 steps
  ring closure, yield after HPLC: 50%

## CC(C)(C)c1ccc2c(n1)N1C[C@@H](CCCn3ccc4ccc(cc43)S(=O)(=O)NC2=O)CC1(C)C [Compound 260, (5S)-11-tert-Butyl-7,7-dimethyl-17λ^6-thia-1,8,10,16-tetraazapentacyclo[16.5.2.15,8.09,14.021,24]hexacosa-9(14),10,12,18,20,22,24-heptaene-15,17,17-trione]
[1]
  Corrector Assay A % activity: + (+ is <30%)
  pEC50: > 6.00
[2]; from CC(C)(C)OC(=O)N1C[C@@H](CCCn2ccc3ccc(S(=O)(=O)NC(=O)c4ccc(C(C)(C)C)nc4Cl)cc32)CC1(C)C, 15-membered ring, K2CO3, NMP, 118.8 mM, 160.0 °C, 2 steps
  ring closure, yield after HPLC: 5%

## CC(C)(C)c1ccc2c(n1)N1C[C@@H](CCC(c3ccc(Cl)cn3)Nc3cccc(n3)S(=O)(=O)NC2=O)CC1(C)C (single isomer, unassigned; diastereomer 2)
[2]; from CC1(C)C[C@H](CCC(Nc2cccc(S(=O)(=O)NC(=O)c3ccc(C(C)(C)C)nc3F)n2)c2ccc(Cl)cn2)CN1, 15-membered ring, K2CO3/3A MS, NMP, 55.9 mM, 150.0 °C, 4.0 h, 2 steps
  ring closure, yield after HPLC: 34%

## CC1(C)CCCc2cc3c(nc21)N1C[C@@H](CCCNc2cccc(n2)S(=O)(=O)NC3=O)CC1(C)C [Compound 265, (18S)-11,11,16,16-Tetramethyl-2λ^6-thia-3,13,15,22,27-pentaazapentacyclo[21.3.1.115,18.05,14.07,12]octacosa-1(27),5(14),6,12,23,25-hexaene-2,2,4-trione]
[1]
  Corrector Assay A % activity: ++ (++ is 30-60%)
  pEC50: > 6.00
[2]; from CC1(C)C[C@H](CCCNc2cccc(S(=O)(=O)NC(=O)c3cc4c(nc3Cl)C(C)(C)CCC4)n2)CN1, 15-membered ring, K2CO3/3A MS, NMP, 33.9 mM, 170.0 °C, 84.0 h, 2 steps
  ring closure, yield after HPLC: 11%

## CC(C)(C)c1ccc2c(n1)N1C[C@@H](CC[C@@H](c3cccc(Br)n3)Nc3cccc(n3)S(=O)(=O)NC2=O)CC1(C)C (single isomer, unassigned) [Compound 214]
[1]
  Corrector Assay A % activity: ++ (++ is 30-60%)
  pEC50: > 6.00
[2]; [5]
  ring closure, yield after HPLC: 45%

## CC1(C)C[C@@H]2CCCn3nnnc3CNc3cccc(n3)S(=O)(=O)NC(=O)c3ccc(-n4ccc(OCCC5(C(F)(F)F)CC5)n4)nc3N1C2 [Compound 380, (12S)-14,14-dimethyl-18-(3-{2-[1-(trifluoromethyl)cyclopropyl]ethoxy}-1H-pyrazol-1-yl)-24λ^6-thia-2,5,6,7,8,15,17,23,29-noNaazapentacyclo [23.3.1.112,15.04,8.016,21]triaconta-1(28),4,6,16,18,20,25(29),26-octaene-22,24,24-trione]
[4]
  Corrector Assay B % activity: +++ (+++ is >60%)
  pEC50: > 6.00
[2]; from CC1(C)C[C@H](CCCn2nnnc2CNc2cccc(S(=O)(=O)NC(=O)c3ccc(-n4ccc(OCCC5(C(F)(F)F)CC5)n4)nc3Cl)n2)CN1, 18-membered ring, K2CO3/3A MS, DMSO, 35.1 mM, 155.0 °C, 16.0 h, 2 steps
  ring closure, yield after HPLC: 41%

## CC1(C)C[C@@H]2CCCN(Cc3nn[nH]n3)c3cccc(n3)S(=O)(=O)NC(=O)c3ccc(-n4ccc(OCCC5(C(F)(F)F)CC5)n4)nc3N1C2 [Compound 372, (14S)-12,12-Dimethyl-18-[(2H-1,2,3,4-tetrazol-5-yl)methyl]-8-(3-{2-[1-(trifluoromethyl)cyclopropyl]ethoxy}-1H-pyrazol-1-yl)-2λ^6-thia-3,9,11,18,23-pentaazatetracyclo[17.3.1.111,14.05,10]tetracosa-1(23),5(10),6,8,19,21-hexaene-2,2,4-trione]
[4]
  Corrector Assay B % activity: +++ (+++ is >60%)
  pEC50: 5.52 to 6.00
[2]; from CC1(C)C[C@H](CCCN(Cc2nn[nH]n2)c2cccc(S(=O)(=O)NC(=O)c3ccc(-n4ccc(OCCC5(C(F)(F)F)CC5)n4)nc3Cl)n2)CN1, 15-membered ring, K2CO3/3A MS, DMSO, 25.8 mM, 155.0 °C, 18.0 h, 2 steps
  ring closure, yield after HPLC: 18%

## CC(C)(C)c1ccc2c(n1)N1C[C@@H](CCC(CCC(C3CC3)C3CC3)Nc3cccc(n3)S(=O)(=O)NC2=O)CC1(C)C (stereo partly drawn)
[2]; from CC(C)(C)OC(=O)N1C[C@@H](CCC(CCC(C2CC2)C2CC2)Nc2cccc(S(=O)(=O)NC(=O)c3ccc(C(C)(C)C)nc3F)n2)CC1(C)C, 15-membered ring, K2CO3, DMSO, 77.1 mM, 140.0 °C, 2 steps
  ring closure, yield after HPLC: 46%
